In patent publication US10383880B2 (Reset Therapeutics, Inc., priority 2012, dated 2019):

tested on: Per2-dLuc U2OS reporter cells; assay: Per2 assay for evaluating the potency of test compounds (high-throughput circadian assay); type: cell-based; conditions: Homo sapiens, U2OS, stable U2OS reporter cells harboring Per2-dLuc; luminescence monitored over 4-5 days at 35° C.
Method in brief: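 Compounds (0.5% DMSO final) were added right after serum-shock synchronization of Per2-dLuc U2OS reporter cells in minimal medium containing 1.0 mM beetle luciferin. Reporter luminescence was followed at 35 °C for 4–5 days to extract rhythm period, amplitude and phase, and EC50 values were obtained from these.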

Q: With `CS(=O)(=O)N(CC(O)Cn1c2ccc(F)cc2c2cc(F)ccc21)c1ccc(-n2cccn2)cc1` (centres unmarked) [Compound 213, N-(4-(1H-Pyrazol-1-yl)phenyl)-N-(3-(3,6-difluoro-9H-carbazol-9-yl)-2-hydroxypropyl)methanesulfonamide] as the compound, how does the EC50 read?
A: Its EC50 is 2950 nM.

Q: With `CS(=O)(=O)N(CC(O)Cn1c2ccc(F)cc2c2cc(F)ccc21)c1ccc(-c2cc[nH]n2)cc1` (centres unmarked) [Compound 214, N-(4-(1H-Pyrazol-3-yl)phenyl)-N-(3-(3,6-difluoro-9H-carbazol-9-yl)-2-hydroxypropyl)methanesulfonamide] as the compound, how does the EC50 read?
A: Its EC50 is 6560 nM.

Q: How did the EC50 turn out when `CC(O)(CN(c1ccccc1)S(C)(=O)=O)Cn1c2ccc(F)cc2c2cc(F)ccc21` (centres unmarked) [Compound 215, N-(3-(3,6-Difluoro-9H-carbazol-9-yl)-2-hydroxy-2-methylpropyl)-N-phenylmethanesulfonamide] was run?
A: Its EC50 is 7880 nM.

Q: For `CCN1CCN(CC(O)Cn2c3ccc(F)cc3c3cc(F)ccc32)S1(=O)=O` (centres unmarked) [Compound 216], which EC50 is on record?
A: Its EC50 is 150 nM.

Q: With `CC(C)N1CCCN(CC(O)Cn2c3ccc(F)cc3c3cc(F)ccc32)S1(=O)=O` (centres unmarked) [Compound 217, 2-(3-(3,6-Difluoro-9H-carbazol-9-yl)-2-hydroxypropyl)-6-isopropyl-1,2,6-thiadiazinane-1,1-dioxide] as the compound, how does the EC50 read?
A: Its EC50 is 1670 nM.

Q: How did the EC50 turn out when `CC(C)N1CCCN(CC(C)(O)Cn2c3ccc(F)cc3c3cc(F)ccc32)S1(=O)=O` (centres unmarked) [Compound 218, 2-(3-(3,6-Difluoro-9H-carbazol-9-yl)-2-hydroxy-2-methylpropyl)-6-isopropyl-1,2,6-thiadiazinane-1,1-dioxide] was run?
A: Its EC50 is 9780 nM.

Q: Which EC50 does the source give for `CCN1CCN(CC(C)(O)Cn2c3ccc(F)cc3c3cc(F)ccc32)S1(=O)=O` (centres unmarked) [Compound 219] here?
A: Its EC50 is 1580 nM.

Q: `O=S1(=O)N(CC(O)Cn2c3ccc(F)cc3c3cc(F)ccc32)CCCN1C1CCCC1` (centres unmarked) [Compound 220, 2-(3-(3,6-Difluoro-9H-carbazol-9-yl)-2-hydroxypropyl)-6-cyclopentyl-1,2,6-thiadiazinane-1,1-dioxide] was tested. Which EC50 did it give?
A: The EC50 was 1660 nM.

Q: For `CC(O)(CN1CCCN(C2CCCC2)S1(=O)=O)Cn1c2ccc(F)cc2c2cc(F)ccc21` (centres unmarked) [Compound 221, 2-(3-(3,6-Difluoro-9H-carbazol-9-yl)-2-hydroxy-2-methylpropyl)-6-cyclopentyl-1,2,6-thiadiazinane-1,1-dioxide], which EC50 is on record?
A: The EC50 was 5520 nM.

Q: `O=S1(=O)N(CC(O)Cn2c3ccc(F)cc3c3cc(F)ccc32)CCCN1C1CCCCC1` (centres unmarked) [Compound 222, 2-(3-(3,6-Difluoro-9H-carbazol-9-yl)-2-hydroxypropyl)-6-cyclohexyl-1,2,6-thiadiazinane-1,1-dioxide] was tested. Which EC50 did it give?
A: The EC50 was 7120 nM.

Q: For `CC(O)(CN1CCCN(C2CCCCC2)S1(=O)=O)Cn1c2ccc(F)cc2c2cc(F)ccc21` (centres unmarked) [Compound 223, 2-(3-(3,6-Difluoro-9H-carbazol-9-yl)-2-hydroxy-2-methylpropyl)-6-cyclohexyl-1,2,6-thiadiazinane-1,1-dioxide], which EC50 is on record?
A: The EC50 was 6790 nM.

Q: How did the EC50 turn out when `CC(C)N1CCN(CC(O)Cn2c3ccc(F)cc3c3cc(F)ccc32)S1(=O)=O` (centres unmarked) [Compound 224] was run?
A: Its EC50 is 59 nM.

Q: For `CC(C)N1CCN(CC(C)(O)Cn2c3ccc(F)cc3c3cc(F)ccc32)S1(=O)=O` (centres unmarked) [Compound 225], which EC50 is on record?
A: Its EC50 is 3090 nM.

Q: Which EC50 does the source give for `CCN1CCCN(CC(O)Cn2c3ccc(F)cc3c3cc(F)ccc32)S1(=O)=O` (centres unmarked) [Compound 226, 2-(3-(3,6-Difluoro-9H-carbazol-9-yl)-2-hydroxypropyl)-6-ethyl-1,2,6-thiadiazinane-1,1-dioxide] here?
A: The EC50 was 314 nM.

Q: `CCN1CCCN(CC(C)(O)Cn2c3ccc(F)cc3c3cc(F)ccc32)S1(=O)=O` (centres unmarked) [Compound 227, 2-(3-(3,6-Difluoro-9H-carbazol-9-yl)-2-hydroxy-2-methylpropyl)-6-ethyl-1,2,6-thiadiazinane-1,1-dioxide] was tested. Which EC50 did it give?
A: Its EC50 is 5290 nM.

Q: With `O=S1(=O)N(CC(O)Cn2c3ccc(F)cc3c3cc(F)ccc32)CCCN1C1CCC1` (centres unmarked) [Compound 228, 2-(3-(3,6-Difluoro-9H-carbazol-9-yl)-2-hydroxypropyl)-6-cyclobutyl-1,2,6-thiadiazinane-1,1-dioxide] as the compound, how does the EC50 read?
A: The EC50 was 3420 nM.

Q: How did the EC50 turn out when `CC(O)(CN1CCCN(C2CCC2)S1(=O)=O)Cn1c2ccc(F)cc2c2cc(F)ccc21` (centres unmarked) [Compound 229, 2-(3-(3,6-Difluoro-9H-carbazol-9-yl)-2-hydroxy-2-methylpropyl)-6-cyclobutyl-1,2,6-thiadiazinane-1,1-dioxide] was run?
A: The EC50 was 4980 nM.

Q: Which EC50 does the source give for `O=S1(=O)N(CC(O)Cn2c3ccc(F)cc3c3cc(F)ccc32)CCN1C1CCCC1` (centres unmarked) [Compound 231] here?
A: The EC50 was 1500 nM.

Q: Which EC50 does the source give for `CC(O)(CN1CCN(C2CCCC2)S1(=O)=O)Cn1c2ccc(F)cc2c2cc(F)ccc21` (centres unmarked) [Compound 232] here?
A: Its EC50 is 2580 nM.

Q: `O=S1(=O)N(CC(O)Cn2c3ccc(F)cc3c3cc(F)ccc32)CCN1C1CCCCC1` (centres unmarked) [Compound 233] was tested. Which EC50 did it give?
A: Its EC50 is 418 nM.

Q: Which EC50 does the source give for `O=S1(=O)N(CC(O)Cn2c3ccc(F)cc3c3cc(F)ccc32)CCN1C1CCC1` (centres unmarked) [Compound 234] here?
A: Its EC50 is 289 nM.

Q: For `CC(O)(CN1CCN(C2CCC2)S1(=O)=O)Cn1c2ccc(F)cc2c2cc(F)ccc21` (centres unmarked) [Compound 235], which EC50 is on record?
A: Its EC50 is 6460 nM.

Q: For `CS(=O)(=O)N(Cc1ccco1)CC(O)Cn1c2ccccc2c2cccc(F)c21` (centres unmarked) [Compound 236, N-(3-(1-Fluoro-9H-carbazol-9-yl)-2-hydroxypropyl)-N-(furan-2-ylmethyl)methanesulfonamide], which EC50 is on record?
A: The EC50 was 620 nM.

Q: `CS(=O)(=O)N(Cc1ccco1)CC(O)Cn1c2ccccc2c2ccc(F)cc21` (centres unmarked) [Compound 237, N-(3-(2-Fluoro-9H-carbazol-9-yl)-2-hydroxy-propyl)-N-(furan-2-yl-methyl)methane-sulfonamide] was tested. Which EC50 did it give?
A: Its EC50 is 594 nM.

Q: `CS(=O)(=O)N(Cc1ccco1)CC(O)Cn1c2ccccc2c2cc(F)ccc21` (centres unmarked) [Compound 238, N-(3-(3-Fluoro-9H-carbazol-9-yl)-2-hydroxy-propyl)-N-(furan-2-yl-methyl)methane-sulfonanide] was tested. Which EC50 did it give?
A: Its EC50 is 535 nM.

Q: With `CS(=O)(=O)N(Cc1ccco1)CC(O)Cn1c2ccccc2c2c(F)cccc21` (centres unmarked) [Compound 239, N-(3-(4-Fluoro-9H-carbazol-9-yl)-2-hydroxy-propyl)-N-(furan-2-yl-methyl)methane-sulfonamide] as the compound, how does the EC50 read?
A: The EC50 was 1580 nM.

Q: For `CC(O)(CN(Cc1ccco1)S(C)(=O)=O)Cn1c2ccccc2c2ccccc21` (centres unmarked) [Compound 240, N-(3-(9H-Carbazol-9-yl)-2-hydroxy-2-methylpropyl)-N-(furan-2-yl-methyl)methane-sulfonamide], which EC50 is on record?
A: Its EC50 is 1060 nM.

Q: Which EC50 does the source give for `CS(=O)(=O)N1CCCC1C(O)Cn1c2ccccc2c2ccccc21` (centres unmarked) [Compound 241, 2-(9H-Carbazol-9-yl)-1-(1-(methyl-sulfonyl)-pyrrolidin-2-yl)ethanol] here?
A: Its EC50 is 488 nM.

Q: For `CS(=O)(=O)N1CCCCC1C(O)Cn1c2ccccc2c2ccccc21` (centres unmarked) [Compound 242, 2-(9H-Carbazol-9-yl)-1-(1-(methylsulfonyl)-piperidin-2-yl)ethanol], which EC50 is on record?
A: The EC50 was 494 nM.

Q: `CC(C)(C(O)Cn1c2ccccc2c2ccccc21)N1CCCS1(=O)=O` (centres unmarked) [Compound 243, 2-(4-(9H-Carbazol-9-yl)-3-hydroxy-2-methylbutan-2-yl)-isothiazolidine-1,1-dioxide] was tested. Which EC50 did it give?
A: Its EC50 is 42 nM.

Q: For `CC(C)(C(O)Cn1c2ccc(F)cc2c2cc(F)ccc21)N1CCCS1(=O)=O` (centres unmarked) [Compound 244, 2-(4-(3,6-Difluoro-9H-carbazol-9-yl)-3-hydroxy-2-methylbutan-2-yl)isothiazolidine-1,1-dioxide], which EC50 is on record?
A: The EC50 was 57 nM.

Q: How did the EC50 turn out when `CC(O)(Cn1c2ccc(F)cc2c2cc(F)ccc21)C(C)(C)N1CCCS1(=O)=O` (centres unmarked) [Compound 245, 2-(4-(3,6-Difluoro-9H-carbazol-9-yl)-3-hydroxy-2,3-dimethylbutan-2-yl)-isothiazolidine-1,1-dioxide] was run?
A: Its EC50 is 1150 nM.
